Experimental data reported in PubChem BioAssay AID1963427 (Molecular Pharmacology Branch, DTP, NCI, 2024).

Tested on: 317291-083-R-J1-PDC complex spheroid growth
Test: Anticancer human tumor 317291-083-R-J1-PDC patient-derived soft tissue sarcoma cell line growth inhibition [Asc]
Settings: for IC50: curve of first compound; for viability, T/C: stronger effect = lower value
Method in brief: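 Spheroid model: tumor line + HUVEC + hMSC. Single agents and combinations; top conc. at/near clinical Cmax (10 microM if undetermined), half-log dilutions. DMSO stocks at 800-fold test concentration.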

[1] = second compound 0.00949 µM, first compound 0.0316 µM
[2] = second compound 0.00949 µM, first compound 0.1 µM
[3] = second compound 0.00949 µM, first compound 0.316 µM
[4] = second compound 0.00949 µM, first compound 1 µM
[5] = second compound 0.03 µM, first compound 0.0316 µM
[6] = second compound 0.03 µM, first compound 0.1 µM
[7] = second compound 0.03 µM, first compound 0.316 µM
[8] = second compound 0.03 µM, first compound 1 µM
[9] = second compound 0.0949 µM, first compound 0.0316 µM
[10] = second compound 0.0949 µM, first compound 0.1 µM
[11] = second compound 0.0949 µM, first compound 0.316 µM
[12] = second compound 0.0949 µM, first compound 1 µM
[13] = second compound 0.3 µM, first compound 0.0316 µM
[14] = second compound 0.3 µM, first compound 0.1 µM
[15] = second compound 0.3 µM, first compound 0.316 µM
[16] = second compound 0.3 µM, first compound 1 µM
[17] = second compound 0.949 µM, first compound 0.0316 µM
[18] = second compound 0.949 µM, first compound 0.1 µM
[19] = second compound 0.949 µM, first compound 0.316 µM
[20] = second compound 0.949 µM, first compound 1 µM
[21] = second compound 3 µM, first compound 0.0316 µM
[22] = second compound 3 µM, first compound 0.1 µM
[23] = second compound 3 µM, first compound 0.316 µM
[24] = second compound 3 µM, first compound 1 µM
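Also: compound exposure lasted seven days after spheroids formed for three days.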
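For viability, T/C in this document: 100% = DMSO vehicle control wells.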

SMILES: C#Cc1c(F)ccc2cc(O)cc(-c3ncc4c(N5CC6CCC(C5)N6)nc(OCC56CCCN5CC(F)C6)nc4c3F)c12 (stereo unspecified) + CCN1C(C(=O)NC23CCC(C(=O)O)(CC2)CC3)C(c2cccc(Cl)c2F)C2(C(=O)Nc3cc(Cl)ccc32)C12CCCCC2
- IC50 (second compound 0.00949 µM): > 10000 nM
- IC50 (second compound 0.03 µM): > 10000 nM
- IC50 (second compound 0.0949 µM): > 10000 nM
- IC50 (second compound 0.3 µM): > 10000 nM
- IC50 (second compound 0.949 µM): > 10000 nM
- IC50 (second compound 3 µM): > 10000 nM
- viability, T/C [1]: 129%
- viability, T/C [2]: 78.8%
- viability, T/C [3]: 125%
- viability, T/C [4]: 153%
- viability, T/C (second compound 0.00949 µM, first compound 3.16 µM): 113%
- viability, T/C (second compound 0.00949 µM, first compound 10 µM): 66.1%
- viability, T/C [5]: 106%
- viability, T/C [6]: 98.3%
- viability, T/C [7]: 106%
- viability, T/C [8]: 112%
- viability, T/C (second compound 0.03 µM, first compound 3.16 µM): 78.2%
- viability, T/C (second compound 0.03 µM, first compound 10 µM): 80.2%
- viability, T/C [9]: 108%
- viability, T/C [10]: 101%
- viability, T/C [11]: 104%
- viability, T/C [12]: 99.6%
- viability, T/C (second compound 0.0949 µM, first compound 3.16 µM): 118%
- viability, T/C (second compound 0.0949 µM, first compound 10 µM): 79.4%
- viability, T/C [13]: 101%
- viability, T/C [14]: 97.6%
- viability, T/C [15]: 120%
- viability, T/C [16]: 126%
- viability, T/C (second compound 0.3 µM, first compound 3.16 µM): 101%
- viability, T/C (second compound 0.3 µM, first compound 10 µM): 69.9%
- viability, T/C [17]: 104%
- viability, T/C [18]: 108%
- viability, T/C [19]: 90.2%
- viability, T/C [20]: 98.7%
- viability, T/C (second compound 0.949 µM, first compound 3.16 µM): 100%
- viability, T/C (second compound 0.949 µM, first compound 10 µM): 78.4%
- viability, T/C [21]: 72.3%
- viability, T/C [22]: 74.1%
- viability, T/C [23]: 77.2%
- viability, T/C [24]: 86.6%
- viability, T/C (second compound 3 µM, first compound 3.16 µM): 69.9%
- viability, T/C (second compound 3 µM, first compound 10 µM): 53.6%

SMILES: CNC(C)C(=O)NC1CN(S(=O)(=O)c2cccc(S(=O)(=O)N3CCC4CCC(C(=O)NC(c5ccccc5)c5ccccc5)N4C(=O)C(NC(=O)C(C)NC)C3)c2)CCC2CCC(C(=O)NC(c3ccccc3)c3ccccc3)N2C1=O (stereo unspecified) + CCN1C(C(=O)NC23CCC(C(=O)O)(CC2)CC3)C(c2cccc(Cl)c2F)C2(C(=O)Nc3cc(Cl)ccc32)C12CCCCC2
- IC50 (second compound 0.00949 µM): 253 nM
- IC50 (second compound 0.03 µM): 517 nM
- IC50 (second compound 0.0949 µM): 313 nM
- IC50 (second compound 0.3 µM): 459 nM
- IC50 (second compound 0.949 µM): > 1000 nM
- IC50 (second compound 3 µM): 75.2 nM
- viability, T/C (second compound 0.00949 µM, first compound 0.00316 µM): 96.9%
- viability, T/C (second compound 0.00949 µM, first compound 0.01 µM): 86%
- viability, T/C [1]: 71.7%
- viability, T/C [2]: 61.3%
- viability, T/C [3]: 49.5%
- viability, T/C [4]: 32.1%
- viability, T/C (second compound 0.03 µM, first compound 0.00316 µM): 81.3%
- viability, T/C (second compound 0.03 µM, first compound 0.01 µM): 87.8%
- viability, T/C [5]: 72.5%
- viability, T/C [6]: 65.2%
- viability, T/C [7]: 50.9%
- viability, T/C [8]: 47.7%
- viability, T/C (second compound 0.0949 µM, first compound 0.00316 µM): 108%
- viability, T/C (second compound 0.0949 µM, first compound 0.01 µM): 101%
- viability, T/C [9]: 79.1%
- viability, T/C [10]: 67.4%
- viability, T/C [11]: 49.1%
- viability, T/C [12]: 39.2%
- viability, T/C (second compound 0.3 µM, first compound 0.00316 µM): 98.7%
- viability, T/C (second compound 0.3 µM, first compound 0.01 µM): 71.4%
- viability, T/C [13]: 70.9%
- viability, T/C [14]: 68.7%
- viability, T/C [15]: 54.5%
- viability, T/C [16]: 41.1%
- viability, T/C (second compound 0.949 µM, first compound 0.00316 µM): 90.1%
- viability, T/C (second compound 0.949 µM, first compound 0.01 µM): 66.4%
- viability, T/C [17]: 64.1%
- viability, T/C [18]: 62.4%
- viability, T/C [19]: 38.9%
- viability, T/C [20]: 63.8%
- viability, T/C (second compound 3 µM, first compound 0.00316 µM): 64.4%
- viability, T/C (second compound 3 µM, first compound 0.01 µM): 66.1%
- viability, T/C [21]: 59%
- viability, T/C [22]: 47.7%
- viability, T/C [23]: 34.6%
- viability, T/C [24]: 35.4%

SMILES: Cc1nc(N2CCC3(CC2)COC(C)C3N)c(CO)nc1Sc1ccnc(N)c1Cl (stereo unspecified) + CCN1C(C(=O)NC23CCC(C(=O)O)(CC2)CC3)C(c2cccc(Cl)c2F)C2(C(=O)Nc3cc(Cl)ccc32)C12CCCCC2
- IC50 (second compound 0.00949 µM): > 3000 nM
- IC50 (second compound 0.03 µM): 2830 nM
- IC50 (second compound 0.0949 µM): > 3000 nM
- IC50 (second compound 0.3 µM): > 3000 nM
- IC50 (second compound 0.949 µM): > 3000 nM
- IC50 (second compound 3 µM): 2740 nM
- viability, T/C (second compound 0.00949 µM, first compound 0.00949 µM): 103%
- viability, T/C (second compound 0.00949 µM, first compound 0.03 µM): 96%
- viability, T/C (second compound 0.00949 µM, first compound 0.0949 µM): 94.9%
- viability, T/C (second compound 0.00949 µM, first compound 0.3 µM): 74.2%
- viability, T/C (second compound 0.00949 µM, first compound 0.949 µM): 95.7%
- viability, T/C (second compound 0.00949 µM, first compound 3 µM): 53.6%
- viability, T/C (second compound 0.03 µM, first compound 0.00949 µM): 108%
- viability, T/C (second compound 0.03 µM, first compound 0.03 µM): 107%
- viability, T/C (second compound 0.03 µM, first compound 0.0949 µM): 96.7%
- viability, T/C (second compound 0.03 µM, first compound 0.3 µM): 90.8%
- viability, T/C (second compound 0.03 µM, first compound 0.949 µM): 69%
- viability, T/C (second compound 0.03 µM, first compound 3 µM): 49%
- viability, T/C (second compound 0.0949 µM, first compound 0.00949 µM): 104%
- viability, T/C (second compound 0.0949 µM, first compound 0.03 µM): 116%
- viability, T/C (second compound 0.0949 µM, first compound 0.0949 µM): 92.5%
- viability, T/C (second compound 0.0949 µM, first compound 0.3 µM): 78.9%
- viability, T/C (second compound 0.0949 µM, first compound 0.949 µM): 70.8%
- viability, T/C (second compound 0.0949 µM, first compound 3 µM): 69.4%
- viability, T/C (second compound 0.3 µM, first compound 0.00949 µM): 120%
- viability, T/C (second compound 0.3 µM, first compound 0.03 µM): 106%
- viability, T/C (second compound 0.3 µM, first compound 0.0949 µM): 95.5%
- viability, T/C (second compound 0.3 µM, first compound 0.3 µM): 97.9%
- viability, T/C (second compound 0.3 µM, first compound 0.949 µM): 73.7%
- viability, T/C (second compound 0.3 µM, first compound 3 µM): 56.1%
- viability, T/C (second compound 0.949 µM, first compound 0.00949 µM): 86.1%
- viability, T/C (second compound 0.949 µM, first compound 0.03 µM): 113%
- viability, T/C (second compound 0.949 µM, first compound 0.0949 µM): 93.4%
- viability, T/C (second compound 0.949 µM, first compound 0.3 µM): 84.8%
- viability, T/C (second compound 0.949 µM, first compound 0.949 µM): 75.7%
- viability, T/C (second compound 0.949 µM, first compound 3 µM): 59.2%
- viability, T/C (second compound 3 µM, first compound 0.00949 µM): 82.2%
- viability, T/C (second compound 3 µM, first compound 0.03 µM): 81.7%
- viability, T/C (second compound 3 µM, first compound 0.0949 µM): 82.8%
- viability, T/C (second compound 3 µM, first compound 0.3 µM): 82.3%
- viability, T/C (second compound 3 µM, first compound 0.949 µM): 66.7%
- viability, T/C (second compound 3 µM, first compound 3 µM): 48.5%
